Test results published in patent US12280043B2, “Sustained-release anesthetic compositions and methods of preparation thereof” (TLC Biopharmaceuticals, Inc., priority 2017, dated 2025).

What was measured:
[1] = Pharmacokinetic study after single SC injection; assay type: in vivo, Sprague-Dawley rats
paw incision mouse model = assay: Anesthetic effect in a paw incision mouse model (von Frey mechanical threshold); assay type: in vivo, C57/BL6 mice; conditions: 0.18 mg ropivacaine per incision
Protocol: Wild type male C57/BL6 mice (8-week-old, Envigo) were used for evaluating the anesthetic efficacy after paw incision as described in Anesthesiology, 2003 October; 99 (4): 1023-7 and J. Neurosci Methods. 1994 July; 53 (1): 55-63. […] Baseline (T=−2 hours) mechanical (von Frey) thresholds of 32 mice were taken prior to surgery; baseline thresholds were measured on the mouse's left hind paw. All 32 mice received a plantar incision (5 mm long and […]) on their left hind paw. Two-hours post-surgery (T=0 hour), the mechanical threshold of each mouse was reassessed and the presence of mechanical allodynia in each mouse was confirmed. Thirty-two mice were randomized into 4 groups (8 mice per group). […] The 50% paw withdrawal threshold of each mouse was obtained using the up-down method at baseline time point (−2), and the designated time points (0, 1, 2, 3, 4, 5, 6, 8, and 24 hours) after SC injection treatment. […] The average 50% withdrawal threshold for each treatment group was graphed; data presented as a withdrawal threshold (g) were plotted against time (FIG. 2A). To account for variability among the baseline mechanical sensitivities of individual mice, each mouse's 50% paw withdrawal thresholds after surgery and treatment were normalized to its own baseline 50% withdrawal threshold (T=−2 hours). […]

[2] = pKa and ionisation state stated in text; assay type: physicochemical; conditions: at pH 6.0, calculation from pKa
[3] = female, Sprague-Dawley, rat, plasma, sc, 20 mg/kg

- Cmax [1, 3]: 802 ± 208 ng/mL
- half-life [1, 3]: 3.1 ± 1.4 h
- AUC(0-t) ([1]; female, Sprague-Dawley, rat, plasma, sc, 20 mg/kg, read-out: AUC0-4): 4040 ± 632 ng·h/mL
- time until which ropivacaine could be detected in the plasma ([1]; rats, single SC, same dosage 20.0 mg/kg): ≤ 24 h
- theoretically uncharged ropivacaine, of available ropivacaine [2]: 0.8%
Structure (SMILES): CCCN1CCCC[C@H]1C(=O)Nc1c(C)cccc1C [Ropivacaine, ropivacaine]
- analgesia compared to vehicle group (paw incision mouse model; SC): some degree of analgesia
- withdrawal threshold at the first time point (paw incision mouse model; T=1 hour after SC injection, increased from 0.04 g): 0.22 g
